Several values for one entry are separate records, joined by “and”; a condition that tells them apart may be missing. Identical values can stand only once.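 Tested at 5 concentrations; 48 h exposure; 96-well plates; endpoints linearly interpolated, else capped at highest concentration. GI50 is the concentration that inhibits growth by half. TGI denotes the concentration required for complete inhibition of growth.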
Tests used:
Assay in all cases: DTP human tumour cell line panel, 48 h
[1] = system: HCT-116 colon
[2] = system: HS 578T breast
[3] = system: A498 renal
[4] = system: KM12 colon
[5] = system: HOP-92 NSCLC
[6] = system: IGROV1 ovarian
[7] = system: HT29 colon
[8] = system: MCF7 breast
[9] = system: CCRF-CEM leukemia
[10] = system: HCT-15 colon

For O=C(Nc1cccc([N+](=O)[O-])c1)c1ccc2ccccc2c1O, the GI50 [1] was 5.27 µM, the TGI [1] was > 100 µM and the GI50 [2] was 2.91 µM. The TGI [2] was > 28.4 µM, the GI50 [3] was 3.27 µM and the TGI [3] was > 66.7 µM. For the same molecule, the GI50 [4] was 4.41 µM, the TGI [4] was > 81.2 µM and the GI50 [5] was 1770 nM. It also gave a TGI [5] of 6.71 µM, a GI50 [6] of 13800 nM and a TGI [6] of 46 µM. The GI50 [7] was 22000 nM, the TGI [7] was > 100 µM and the GI50 [8] was 2880 nM. The TGI [8] was > 43.2 µM, the GI50 [9] was 2350 nM and the TGI [9] was > 35.1 µM. The GI50 [10] was 9000 nM and the TGI [10] was > 78.3 µM.

With COc1cc2c3c(n(CCCCNC(=O)OCC4c5ccccc5-c5ccccc54)c(=O)c2cc1OC)-c1cc2c(cc1C3=O)OCO2 the GI50 [1] was 7.73 µM, the TGI [1] was 33.6 µM and the GI50 [2] was 80.7 µM. The TGI [2] was > 100 µM, the GI50 [3] was > 100 µM and the TGI [3] was > 100 µM. For the same molecule, the GI50 [4] was 22 µM, the TGI [4] was > 100 µM and the GI50 [5] was 1490 nM. For the same molecule, the TGI [5] was 9.69 µM, the GI50 [6] was 17900 nM and the TGI [6] was > 100 µM. For the same molecule, the GI50 [7] was 16900 nM, the TGI [7] was > 100 µM and the GI50 [8] was 554 nM. For the same molecule, the TGI [8] was 16.2 µM, the GI50 [9] was 2750 nM and the TGI [9] was > 100 µM. For the same molecule, the GI50 [10] was 12900 nM and the TGI [10] was 80.3 µM.

CO/N=C(\COc1ccc2c(c1)oc(=O)c1cc(OC)ccc12)c1cccc(OC)c1 was tested, and the GI50 [1] was > 100 µM, the TGI [1] was > 100 µM and the GI50 [2] was > 100 µM. The TGI [2] was > 100 µM, the GI50 [3] was 80.2 µM and the TGI [3] was > 100 µM. The GI50 [4] was > 100 µM, the TGI [4] was > 100 µM and the GI50 [5] was > 100000 nM. The TGI [5] was > 100 µM, the GI50 [6] was > 100000 nM and the TGI [6] was > 100 µM. For the same molecule, the GI50 [7] was > 100000 nM, the TGI [7] was > 100 µM and the GI50 [8] was > 100000 nM. The TGI [8] was > 100 µM, the GI50 [9] was > 100000 nM and the TGI [9] was > 100 µM. For the same molecule, the GI50 [10] was > 100000 nM and the TGI [10] was > 100 µM.

Molecule Cc1cc(NCCCCNc2ccnc3cc(Cl)ccc23)nc(Nc2ccc(C(=O)N3CCCC3)cc2)n1 has a GI50 [1] of 1.59 µM, a TGI [1] of 3.55 µM and a GI50 [2] of 1.85 µM. For the same molecule, the TGI [2] was 4.74 µM, the GI50 [3] was 1.51 µM and the TGI [3] was 7.09 µM. For the same molecule, the GI50 [4] was 3 µM, the TGI [4] was 11.3 µM and the GI50 [5] was 1580 nM. It also gave a TGI [5] of 3.7 µM, a GI50 [6] of 3580 nM and a TGI [6] of 13.4 µM. It also gave a GI50 [7] of 2370 nM, a TGI [7] of 7.8 µM and a GI50 [8] of 1720 nM. For the same molecule, the TGI [8] was 5.02 µM, the GI50 [9] was 2860 nM and the TGI [9] was > 100 µM. For the same molecule, the GI50 [10] was 2280 nM and the TGI [10] was 6.75 µM.

Work on Oc1ccc2ccccc2c1C(c1ccc(Cl)cc1)c1c(O)ccc2ccccc12 yielded a TGI [1] of 9.36 µM, a TGI [2] of 8.62 µM and a TGI [3] of 9.36 µM. The TGI [4] was 7.87 µM, the TGI [5] was 4.89 µM and the TGI [6] was 7.65 µM. For the same molecule, the TGI [7] was 9.78 µM, the TGI [8] was 11.5 µM and the TGI [9] was 7.46 µM. The TGI [10] was > 30.2 µM.

For CC(C)=CCc1ccc(O)c(=O)cc1C(C)C, the GI50 [1] was 0.469 µM, the TGI [1] was > 100 µM and the GI50 [2] was 48.1 µM. For the same molecule, the TGI [2] was > 100 µM, the GI50 [3] was 5.18 µM and the TGI [3] was 64.7 µM. The GI50 [4] was 0.641 µM, the TGI [4] was > 100 µM and the GI50 [5] was 1320 nM. It also gave a TGI [5] of 65.3 µM, a GI50 [6] of 430 nM and a TGI [6] of 16.1 µM. For the same molecule, the GI50 [7] was 1510 nM, the TGI [7] was > 100 µM and the GI50 [8] was 501 nM. For the same molecule, the TGI [8] was > 100 µM, the GI50 [9] was 485 nM and the TGI [9] was > 100 µM. For the same molecule, the GI50 [10] was 362 nM and the TGI [10] was > 100 µM.

COc1cc(C(=O)N2CCN(c3ccccc3OC)CC2)c(N)cc1OCc1ccccc1 gave a GI50 [1] of 20.7 µM, a TGI [1] of 42.8 µM and a GI50 [2] of 42.7 µM. For the same molecule, the TGI [2] was > 100 µM, the GI50 [3] was 30.6 µM and the TGI [3] was 81.2 µM. It also gave a GI50 [4] of 32.9 µM, a TGI [4] of 90.6 µM and a GI50 [5] of 14800 nM. For the same molecule, the TGI [5] was 43.4 µM, the GI50 [6] was 28500 nM and the TGI [6] was > 100 µM. For the same molecule, the GI50 [7] was 31300 nM, the TGI [7] was > 100 µM and the GI50 [8] was 29300 nM. For the same molecule, the TGI [8] was > 100 µM, the GI50 [9] was 34700 nM and the TGI [9] was 98.3 µM. For the same molecule, the GI50 [10] was 34900 nM and the TGI [10] was > 100 µM.

NC(N)=N/N=C(/c1ccccc1)c1ccc(Cl)cc1 was tested, and the GI50 [1] was 4.71 µM, the TGI [1] was 63.6 µM and the GI50 [2] was 8.57 µM. The TGI [2] was 51.7 µM, the GI50 [3] was 4.71 µM and the TGI [3] was 28.7 µM. For the same molecule, the GI50 [4] was 5.53 µM, the TGI [4] was > 100 µM and the GI50 [5] was 4090 nM. For the same molecule, the TGI [5] was 90.5 µM, the GI50 [6] was 10600 nM and the TGI [6] was 82.5 µM. The GI50 [7] was 2930 nM, the TGI [7] was 24.9 µM and the GI50 [8] was 3690 nM. The TGI [8] was > 100 µM, the GI50 [9] was 3890 nM and the TGI [9] was > 100 µM. The GI50 [10] was 5800 nM and the TGI [10] was > 100 µM.

For c1ccc2c(Nc3ccc(Oc4ccc(Nc5c6ccccc6nc6ccccc56)cc4)cc3)c3ccccc3nc2c1, the GI50 [1] was 0.155 µM and 0.0325 µM, the TGI [1] was 0.289 µM and 0.117 µM and the TGI [2] was 5.04 µM. For the same molecule, the TGI [3] was 3.85 µM, the GI50 [4] was 0.21 µM and 0.187 µM and the TGI [4] was 0.441 µM and 0.376 µM. The GI50 [5] was 285 nM, the TGI [5] was 1.5 µM and 4.69 µM and the GI50 [6] was 292 nM and 1160 nM. The TGI [6] was 1.21 µM and 2.64 µM, the GI50 [7] was 237 nM and 212 nM and the TGI [7] was 0.569 µM and 0.496 µM. The GI50 [8] was 176 nM, the GI50 [9] was 217 nM and the TGI [9] was 0.719 µM. The GI50 [10] was 19 nM and 17 nM and the TGI [10] was 0.0358 µM and 0.0379 µM.

With COc1cc2c(cc1OCCCCCn1c(-c3ccco3)nc3ccccc31)N=C[C@@H]1CCCN1C2=O the GI50 [1] was < 0.01 µM, the TGI [1] was 16.1 µM and the GI50 [2] was < 0.01 µM. The TGI [2] was < 0.0349 µM, the GI50 [3] was < 0.01 µM and the TGI [3] was < 0.0156 µM. The GI50 [4] was < 0.01 µM, the GI50 [5] was < 12.2 nM and the GI50 [6] was < 10 nM. For the same molecule, the TGI [6] was 13.2 µM, the GI50 [7] was < 10 nM and the TGI [7] was > 100 µM. For the same molecule, the GI50 [8] was < 10 nM, the TGI [8] was 19 µM and the GI50 [9] was < 10 nM. The TGI [9] was 0.09 µM, the GI50 [10] was 45.2 nM and the TGI [10] was 26.4 µM.

For CC1CC(C)/C(=N/NC(N)=O)C(C(O)CC2CCC(=O)NC2=O)C1 (centres undefined), the GI50 [1] was 3.04 µM, the TGI [1] was > 100 µM and the GI50 [2] was 1.34 µM. It also gave a TGI [2] of 8.25 µM, a GI50 [3] of 4.94 µM and a TGI [3] of 92.4 µM. For the same molecule, the GI50 [4] was 3.05 µM, the TGI [4] was 42.4 µM and the GI50 [5] was 2310 nM. It also gave a TGI [5] of 31.5 µM, a GI50 [6] of 2640 nM and a TGI [6] of 56.5 µM. The GI50 [7] was 3490 nM, the TGI [7] was > 100 µM and the GI50 [8] was 3920 nM. The TGI [8] was > 100 µM, the GI50 [9] was 2000 nM and the TGI [9] was 97.2 µM. For the same molecule, the GI50 [10] was 3390 nM and the TGI [10] was > 100 µM.

COc1cc(Nc2ncc3c(C)nc(-c4cccc(Oc5ccccc5)c4)n3n2)cc(OC)c1OC was tested, and the GI50 [1] was 3.03 µM, the TGI [1] was > 25 µM and the GI50 [2] was 7.51 µM. For the same molecule, the TGI [2] was > 25 µM, the GI50 [3] was 2.03 µM and the TGI [3] was > 22.9 µM. For the same molecule, the GI50 [4] was 5.95 µM, the TGI [4] was > 25 µM and the GI50 [5] was 6290 nM. The TGI [5] was > 24.1 µM, the GI50 [6] was 2320 nM and the TGI [6] was > 25 µM. It also gave a GI50 [7] of 5710 nM, a TGI [7] of 16.3 µM and a GI50 [8] of 7180 nM. The TGI [8] was > 24.1 µM, the GI50 [9] was 3900 nM and the TGI [9] was > 25 µM. For the same molecule, the GI50 [10] was 2500 nM and the TGI [10] was > 25 µM.

In the case of N#Cc1c(NC(=O)c2cccc3ccccc23)sc2c1CCCC2, the GI50 [1] is reported as 0.0673 µM, the TGI [1] is reported as 5.37 µM and the GI50 [2] is reported as 0.0156 µM. The GI50 [3] was 0.0171 µM, the TGI [3] was 1.83 µM and the GI50 [4] was 0.105 µM. For the same molecule, the TGI [4] was > 25 µM, the GI50 [5] was 457 nM and the TGI [5] was > 25 µM. For the same molecule, the GI50 [6] was 177 nM, the TGI [6] was > 25 µM and the GI50 [7] was 71.6 nM. The TGI [7] was 0.224 µM, the GI50 [8] was 90 nM and the TGI [8] was > 25 µM. For the same molecule, the GI50 [9] was 42.2 nM, the TGI [9] was > 25 µM and the GI50 [10] was 77.5 nM. For the same molecule, the TGI [10] was > 25 µM.
